Laboratory results: patent US20100313310A1, “METHOD FOR IMPROVED UTILIZATION OF THE PRODUCTION POTENTIAL OF TRANSGENIC PLANTS” (priority 2006, published 2010)

What was measured:
[1] = tested on: cotton aphid (Aphis gossypii); test: Spray treatment of transgenic cotton (line DP444 BG/RR) populated by cotton aphid, kill in %, Colby synergy; format: in vivo; settings: spirotetramate at 100 ppm by spray where applied
Excerpt: (§1) This is based on the following calculation base and assumption (“Colby formula”): […]
(§2) If • X is the kill rate, expressed in % of the untreated and not transgenically modified control, when employing the active compound A at an application rate of m g/ha or at a concentration of m ppm, • Y is the kill rate, expressed in % of the untreated and not transgenically modified control, when using a transgenic plant and • E is the kill rate, expressed in % of the untreated and not transgenically modified control, when employing active compound A and using a transgenically modified plant, the application rate being m and n g/ha or the concentration being m and n ppm, then
(§3) If the actual kill rate (i.e. the activity observed) is higher than the calculated one, the combination of active compound treatment and transgenically modified plant is superadditive in its kill, i.e. a synergistic effect between the active compound treatment and the use of a transgenic plant is present. In this case, the actually observed kill rate must thus be higher than the value calculated using the formula above for the kill rate (E). […]
(§4) After a desired period of time, the kill in % is determined by counting the animals. […]

[2] = tested on: armyworm (Spodoptera exigua); test: Spray treatment of transgenic maize lines against larvae of the armyworm, kill in %, Colby synergy; format: in vivo; settings: spirotetramate at 100 ppm by spray where applied
Excerpt: as §1, §2, §3, §4

[3] = tested on: armyworm (Spodoptera frugiperda); test: Spray treatment of transgenic maize lines against armyworm, kill in %, Colby synergy; format: in vivo; settings: spirotetramate at 100 ppm by spray where applied
Excerpt: as §1, §2, §3, §4

Row | Compound | melting point | also measured
1 | COC1CCC2(CC1)NC(=O)C(c1c(C)ccc(Cl)c1C)=C2O (stereo not drawn) | 219 °C | 
2 | COC1CCC2(CC1)NC(=O)C(c1c(C)cc(C)c(C)c1C)=C2O (stereo not drawn) | > 220 °C | 
3 | spirotetramate |  | Kill in % after 4d (observed) [1]: 35%; Kill in % after 4d (observed) [2]: 10%; Kill in % after 1d (observed) ([3]; after 1 d): 0%; Kill in % after 4d (observed) ([3]; after 4 d): 60%

More lines, main results first:

Row | melting point | Compound | also measured
4 | > 220 °C | COC1CCC2(CC1)NC(=O)C(c1cc(C)ccc1C)=C2O (stereo not drawn) | 
5 | > 220 °C | COC1CCC2(CC1)NC(=O)C(c1c(C)ccc(Br)c1C)=C2O (stereo not drawn) | 
6 | 162 °C | CCOC(=O)OC1=C(c2cc(C)c(Cl)cc2C)C(=O)NC12CCC(OC)CC2 (stereo not drawn) | 
